Results on 19 compounds are retold here after patent publication US8563714B2, “Bridged spiro [2.4] heptane derivatives as ALX receptor and/or FPRL2 agonists” (Actelion Pharmaceuticals Ltd., priority 2009, dated 2013).

For test [1], the target named is T1, human ALX receptor (Homo sapiens, UniProt P25090).
T1 construct: expressed in transfected cells; host or cells: HEK293 (HEK293-hALXR-Gα16)
T1 sequence (P25090 1-351): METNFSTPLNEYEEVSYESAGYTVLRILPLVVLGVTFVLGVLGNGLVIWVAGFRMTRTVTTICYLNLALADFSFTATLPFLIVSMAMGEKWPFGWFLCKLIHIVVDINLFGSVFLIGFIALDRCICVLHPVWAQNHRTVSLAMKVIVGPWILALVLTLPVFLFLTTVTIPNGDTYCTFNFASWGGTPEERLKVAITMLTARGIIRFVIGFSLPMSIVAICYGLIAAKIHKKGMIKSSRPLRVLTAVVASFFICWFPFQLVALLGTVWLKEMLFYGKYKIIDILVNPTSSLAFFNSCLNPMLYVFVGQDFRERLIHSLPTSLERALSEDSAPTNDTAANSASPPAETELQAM
The test can be described thus: Intracellular calcium measurements (FLIPR), agonistic activity in HEK293-hALXR-Gα16 cells. In kind it is cell-based. As to conditions: Fluo-4 calcium FLIPR, normalized to WKYMVm 10 nM. The procedure, abridged: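 Agonist-induced calcium flux was recorded by FLIPR (488/540 nm) in HEK293-hALXR-Gα16 cells pre-loaded with Fluo-4 AM (1 μM, 60 min, 37°C). Peak signal above baseline, after subtracting buffer addition, was expressed relative to WKYMVm at 10 nM final.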

In test [2] the target is T2, human FPRL2 (Homo sapiens, UniProt P25089).
T2 construct: expressed in transfected cells; host or cells: HEK293 (HEK293-hFPRL2-Gα16)
T2 sequence (P25089 1-353): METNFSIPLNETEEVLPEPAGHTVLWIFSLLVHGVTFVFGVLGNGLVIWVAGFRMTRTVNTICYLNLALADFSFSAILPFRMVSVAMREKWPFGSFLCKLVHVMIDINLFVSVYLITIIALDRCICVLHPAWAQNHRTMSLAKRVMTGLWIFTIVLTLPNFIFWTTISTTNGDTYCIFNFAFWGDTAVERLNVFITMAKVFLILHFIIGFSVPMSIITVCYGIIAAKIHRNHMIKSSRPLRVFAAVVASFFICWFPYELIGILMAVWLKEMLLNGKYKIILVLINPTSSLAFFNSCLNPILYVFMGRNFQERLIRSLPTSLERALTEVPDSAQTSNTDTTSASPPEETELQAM
The test can be described thus: Intracellular calcium measurements (FLIPR), agonistic activity in HEK293-hFPRL2-Gα16 cells. The conditions noted are these: Fluo-4 calcium FLIPR, normalized to GLY14-Humanin 100 nM. The format is cell-based. The procedure, abridged:
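Peak values after baseline subtraction are expressed relative to 100 nM Gly14-Humanin; compounds diluted in assay buffer from 10 mM DMSO stocks.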
(A change in cytosolic calcium serves as a functional read-out for many receptors and channels.)

Broadly, the EC50 is the concentration giving half of the maximal effect.

Regarding `CC(C)(C)c1csc(NC(=O)[C@H]2[C@H](C(=O)NCCCCN3CCCC3)[C@H]3C=C[C@@H]2C32CC2)n1` (racemic) [Example 152, (5R*)—N^5-(4-tert-Butyl-thiazol-2-yl)-(6R*)—N^6-(4-pyrrolidin-1-yl-butyl)-(4S*,7R*)-[4,7-ethenylene-spiro[2.4]heptane]-5,6-dicarboxamide], the figures for the EC50 in test [1] and in test [2] were 9630 nM and 150 nM, respectively.
Take `O=C(NCCCCN1CCCC1)[C@H]1[C@H](C(=O)NCc2ccc(F)c(Br)c2)[C@@H]2C=C[C@H]1C21CC1` (racemic) [Example 354, (5R*)—N^5-(3-Bromo-4-fluorophenyl-methyl)-(6R*)—N^6-(4-pyrrolidino-butyl)-(4S*,7R*)-[4,7-ethenylene-spiro[2.4]heptane]-5,6-dicarboxamide]: the figures for the 50% effective concentration (EC50) in test [1] and in test [2] were 7410 nM and 223 nM, respectively.
Turning to `Cc1nn(C)c(Cl)c1C(=O)NC[C@H]1[C@H](C(=O)Nc2ccc(Br)cc2)[C@@H]2C=C[C@H]1C21CC1` (racemic) [Example 190, (5R*)—N^5-(4-Bromo-phenyl)-(6R*)-6-{[(5-chloro-1,3-dimethyl-1H-pyrazole-4-carbonyl)-amino]-methyl}-(4S*,7R*)-[4,7-ethenylene-spiro[2.4]heptane]-5-carboxamide], the concentration for a half-maximal effect (EC50) in test [1] was determined as 963 nM; in test [2] it was 1700 nM.
On the same counts, the results for `CC(C)(C)OC(=O)N1CCC(NC(=O)[C@H]2[C@H](C(=O)Nc3ccc(Br)cc3)[C@@H]3C=C[C@H]2C32CC2)CC1` (racemic) [Example 94, (5R*)—N^5-(4-Bromophenyl)-(6R*)—N^6—(N-tert-butoxycarbonyl-piperidin-4-yl)-(4S*,7R*)-[4,7-ethenylene-spiro[2.4]heptane]-5,6-dicarboxamide] are 218 nM and 1040 nM.
Consider `CN(C)CCCCCNC(=O)[C@H]1[C@H](C(=O)Nc2ccc(Br)cc2)[C@@H]2CC[C@H]1C21CC1` (racemic) [Example 109, (5R*)—N^5-(4-Bromophenyl)-(6R*)—N^6-(5-(dimethyl-amino)-pentyl)-(4S*,7R*)-[4,7-ethylene-spiro[2.4]heptane]-5,6-dicarboxamide], for which the EC50 in test [1] was found to be 0.7 nM; in test [2], 666 nM.
For `CNCCNC(=O)[C@H]1[C@H](C(=O)Nc2ncc(Br)s2)[C@@H]2C=C[C@H]1C21CC1` (racemic) [Example 301, (5R*)—N^5-(5-Bromo-thiazol-2-yl)-(6R*)—N^6-(2-methylamino-ethyl)-(4S*,7R*)-[4,7-ethenylene-spiro[2.4]heptane]-5,6-dicarboxamide] the same measures were 98 nM and 2700 nM.
On the same counts, the results for `CCN(CC)CCCCNC(=O)[C@H]1[C@H](C(=O)Nc2ncc(Br)s2)[C@@H]2C=C[C@H]1C21CC1` (racemic) [Example 270, (5R*)—N^5-(5-Bromothiazol-2-yl)-(6R*)—N^6-(4-diethylamino-butyl)-(4S*,7R*)-[4,7-ethenylene-spiro[2.4]heptane]-5,6-dicarboxamide] are 54 nM and 396 nM.
As to `Cc1ccc(CNC(=O)[C@H]2[C@H](C(=O)NCCCCN3CCCC3)[C@H]3C=C[C@@H]2C32CC2)cc1` (racemic) [Example 123, (5R*)—N^5-[(4-Methyl-phenyl)-methyl]-(6R*)—N^6-(4-pyrrolidin-1-yl-butyl)-(4S*,7R*)-[4,7-ethenylene-spiro[2.4]heptane]-5,6-dicarboxamide], the EC50 worked out at 46 nM in test [1] and 332 nM in test [2].
On the same counts, the results for `O=C(NCCCCN1CCCC1)[C@H]1[C@H](C(=O)NCCOc2ccccc2)[C@@H]2C=C[C@H]1C21CC1` (racemic) [Example 134, (5R*)—N^5-(2-Phenoxy-ethyl)-(6R*)—N^6-(4-pyrrolidin-1-yl-butyl)-(4S*,7R*)-[4,7-ethenylene-spiro[2.4]heptane]-5,6-dicarboxamide] are 319 nM and 612 nM.
Take `NCCNC(=O)[C@H]1[C@H](C(=O)Nc2ccc(Br)cc2)[C@@H]2C=C[C@H]1C21CC1` (racemic) [Example 44, (5R*)—N^5-(4-Bromophenyl)-(6R*)—N^6-(2-amino-ethyl)-(4S*,7R*)-[4,7-ethenylene-spiro[2.4]heptane]-5,6-dicarboxamide]: the 50% effective concentration (EC50) came out at 10 nM in test [1] and 4910 nM in test [2].
On the same counts, the results for `O=C(NCCCCN1CCCC1)[C@H]1[C@H](C(=O)NCc2cccc(C(F)(F)F)c2F)[C@@H]2C=C[C@H]1C21CC1` (racemic) [Example 357, (5R*)—N^5-(2-Fluoro-3-trifluoromethylphenyl-methyl)-(6R*)—N^6-(4-pyrrolidino-butyl)-(4S*,7R*)-[4,7-ethenylene-spiro[2.4]heptane]-5,6-dicarboxamide] are 7910 nM and 290 nM.
For `CC(C)(C)OC(=O)N1CCCC(CCNC(=O)C2C(C(=O)Nc3ccc(Br)cc3)C3C=CC2C32CC2)C1` (mixture of isomers) [Example 99, (5R*)—N^5-(4-Bromophenyl)-(6R*)—N^6-(2-(N-tert-butoxycarbonyl-piperidin-3-yl)-ethyl)-(4S*,7R*)-[4,7-ethenylene-spiro[2.4]heptane]-5,6-dicarboxamide] the same measures were 552 nM and 5490 nM.
On the same counts, the results for `CC(C)(CNC(=O)OC(C)(C)C)CNC(=O)[C@H]1[C@H](C(=O)Nc2ccc(Br)cc2)[C@@H]2C=C[C@H]1C21CC1` (racemic) [Example 71, (5R*)—N^5-(4-Bromophenyl)-(6R*)—N^6-(2,2-dimethyl-3-N-tert-butoxycarbonyl-amino-propyl)-(4S*,7R*)-[4,7-ethenylene-spiro[2.4]heptane]-5,6-dicarboxamide] are 63 nM and 5550 nM.
Consider `CC(=O)c1coc(CNC(=O)[C@H]2[C@H](C(=O)NCCCCN3CCCC3)[C@H]3C=C[C@@H]2C32CC2)n1` (racemic) [Example 243, (5R*)—N^5-(4-Acetyl-oxazol-2-yl-methyl)-(6R*)—N^6-(4-pyrrolidin-1-yl-butyl)-(4S*,7R*)-[4,7-ethenylene-spiro[2.4]heptane]-5,6-dicarboxamide], for which the EC50 turned out to be 170 nM in test [1] and 2300 nM in test [2].
On the same counts, the results for `Cn1c(CCC(=O)NC[C@H]2[C@H](C(=O)Nc3ccc(Br)cc3)[C@@H]3C=C[C@H]2C32CC2)nc2ccccc21` (racemic) [Example 185, (5R*)—N^5-(4-Bromo-phenyl)-(6R*)-6-[(3-(1-methyl-1H-benzoimidazol-2-yl)-propionylamino)-methyl]-(4S*,7R*)-[4,7-ethenylene-spiro[2.4]heptane]-5-carboxamide] are 336 nM and 709 nM.
On the same counts, the results for `CC(=O)c1ncc(CNC(=O)[C@H]2[C@H](C(=O)NCCCCN3CCCC3)[C@H]3C=C[C@@H]2C32CC2)s1` (racemic) [Example 224, (5R*)—N^5-(2-Acetyl-thiazol-5-yl-methyl)-(6R*)—N^6-(4-pyrrolidin-1-yl-butyl)-(4S*,7R*)-[4,7-ethenylene-spiro[2.4]heptane]-5,6-dicarboxamide] are 994 nM and 1860 nM.
For `CCN(CC)CCCCNC(=O)[C@H]1[C@H](C(=O)NCc2nc(C(C)=O)cs2)[C@@H]2C=C[C@H]1C21CC1` (racemic) [Example 262, (5R*)—N^5-(4-Acetyl-thiazol-2-yl-methyl)-(6R*)—N^6-(4-diethylamino-butyl)-(4S*,7R*)-[4,7-ethenylene-spiro[2.4]heptane]-5,6-dicarboxamide] the same measures were 97 nM and 106 nM.
For `Cc1csc(NC(=O)[C@H]2[C@H](C(=O)NCCCCN3CCCC3)[C@H]3C=C[C@@H]2C32CC2)n1` (racemic) [Example 256, (5R*)—N^5-(4-Methyl-thiazol-2-yl)-(6R*)—N^6-(4-pyrrolidin-1-yl-butyl)-(4S*,7R*)-[4,7-ethenylene-spiro[2.4]heptane]-5,6-dicarboxamide], the 50% effective concentration (EC50) in test [1] is 6720 nM; in test [2], 348 nM.
On the same counts, the results for `O=C(NCC1CCCN1)C1C(C(=O)Nc2ccc(Br)cc2)C2C=CC1C21CC1` (mixture of isomers) [Example 18, (5R*)—N^5-(4-Bromophenyl)-(6R*)—N^6-(2-pyrrolidinyl-methyl)-(4S*,7R*)-[4,7-ethenylene-spiro[2.4]heptane]-5,6-dicarboxamide] are 2 nM and 551 nM.
